This passage reports light stability, thermal stability and brain tele-methylhistamine level results from patent publication US7790731B2 (Banyu Pharmaceutical Co. Ltd., priority 2005, dated 2010).

Series [1] can be described thus: Thermal and light stability compared with the amorphous compound. The format is physicochemical. As to conditions: as compared with amorphous compound.
The test system of series [2] is male SD rats. The series is described as follows: Intracerebral histamine release promotion test. It is filed as in vivo. The note with it: 30 mg/kg orally, Pargyline-treated male SD rats, 2 hours after administration. Here is the method: A histamine 3 receptor antagonist or inverse-agonist is reported to promote histamine release at the nerve end presynaptic region in a brain. For the purpose of investigating the effect of the medicine of the invention on these, a test compound suspended in an aqueous 0.5% methyl cellulose solution was orally administered to male SD rats (7 to 10-week age, 200 to 300 g) treated with a monoamine oxidase inhibitor (Pargyline). 2 hours after the medicine administration, the rats were killed in euthanasia, and the brain tissue was rapidly taken out. According to a Miyamoto et al's method, the concentration of histamine and its main metabolite, tele-methylhistamine in the brain tissue was measured [see Analytical Biochemistry, Vol. 334, p. 89 (2004)].

On to `Cc1nc2cccc(C(F)(F)F)c2c(=O)n1-c1ccc(OCCCN2CCCC2)cc1` [form I crystal, 2-methyl-3-{4-[3-(1-pyrrolidinyl)propoxy]phenyl}-5-trifluoromethyl-4(3H)-quinazolinone], for which, in series [1], the light stability result is given as “excellent” and the thermal stability result is given as “excellent”. Further, the brain tele-methylhistamine level entry in series [2] is “significantly increased”.
